Data on 14 molecules can be found in PubChem BioAssay AID220 (DTP/NCI, 2004).

Where “and” joins values, the source holds several entries; their conditions need not be identical. Equal entries are not always repeated. Inconclusive results are not listed. Positions of bridges follow the written chain, without caps; N, C: chain ends. Residues, ends and D or L forms follow the SMILES beside them.

In this assay the test system is CD8F1 mice, subcutaneous mammary adenocarcinoma, T/C%. In words: NCI In Vivo Anticancer Drug Screen. Data for tumor model Mammary Adenocarcinoma CD8F1 (subcutaneous) in CD8F1. The following applies: higher = larger tumour. The gist of the method:
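Tumor-bearing mice, transplantable model; readout survival or tumor size; value = treated (T) / vehicle control (C).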

Where [1] appears, read: endpoint: median tumor weight (est.), dose: 25.0 mg/kg/injection, schedule: Q07DX005 (ip), vehicle: Klucel (hydroxypropylcellulose) (HPC).
The mark [2] stands for this setting: endpoint: median tumor weight (est.), dose: 50.0 mg/kg/injection, schedule: Q07DX005 (ip), vehicle: Klucel (hydroxypropylcellulose) (HPC).
Setting [3] is: endpoint: median tumor weight (est.), dose: 100.0 mg/kg/injection, schedule: Q07DX005 (ip), vehicle: Klucel (hydroxypropylcellulose) (HPC).
Setting [4] is: endpoint: median tumor weight (est.), dose: 200.0 mg/kg/injection, schedule: Q07DX005 (ip), vehicle: Klucel (hydroxypropylcellulose) (HPC).
Where [5] appears, read: endpoint: median tumor weight (est.), dose: 400.0 mg/kg/injection, schedule: Q07DX005 (ip), vehicle: Klucel (hydroxypropylcellulose) (HPC).

`Nc1ccc2ccc(NS(=O)(=O)N3CCCCC3)cc2c1`: the T/C is, setting by setting: (endpoint: median tumor weight change, dose: 125.0 mg/kg/injection, schedule: Q01DX001 (ip), vehicle: saline with Tween-80) 66 % of control; (endpoint: median tumor weight change, dose: 250.0 mg/kg/injection, schedule: Q01DX001 (ip), vehicle: saline with Tween-80) 73 % of control; (endpoint: median tumor weight change, dose: 500.0 mg/kg/injection, schedule: Q01DX001 (ip), vehicle: saline with Tween-80) 87 % of control; (endpoint: median tumor weight change, dose: 1000.0 mg/kg/injection, schedule: Q01DX001 (ip), vehicle: saline with Tween-80) 31 % of control.

Consider `CCC(C)C1NC(=O)C(CC(C)C)NC(=O)C(C(C)C)NC(=O)C2CSSCC(NC1=O)C(=O)N2` (stereo not given) (cyclo(CCVLI); disulfide 1-2; configuration not given here), for which the T/C (endpoint: median tumor weight change, dose: 0.31 mg/kg/injection, schedule: Q01DX001 (ip), vehicle: Klucel (hydroxypropylcellulose) (HPC)) was 78 % of control; the T/C (endpoint: median tumor weight change, dose: 0.62 mg/kg/injection, schedule: Q01DX001 (ip), vehicle: Klucel (hydroxypropylcellulose) (HPC)) is 118 % of control; the T/C (endpoint: median tumor weight change, dose: 1.25 mg/kg/injection, schedule: Q01DX001 (ip), vehicle: Klucel (hydroxypropylcellulose) (HPC)) is 74 % of control; the T/C (endpoint: median tumor weight change, dose: 2.5 mg/kg/injection, schedule: Q01DX001 (ip), vehicle: Klucel (hydroxypropylcellulose) (HPC)) is 94 % of control; the T/C (endpoint: median tumor weight change, dose: 5.0 mg/kg/injection, schedule: Q01DX001 (ip), vehicle: Klucel (hydroxypropylcellulose) (HPC)) is 111 % of control.

In the case of `OC1OC2COC(c3ccccc3)OC2C(O)C1O` (stereo not given), the T/C is 105 % of control (endpoint: median tumor weight change, dose: 50.0 mg/kg/injection, schedule: Q01DX001 (ip), vehicle: water); 80 % of control (endpoint: median tumor weight change, dose: 100.0 mg/kg/injection, schedule: Q01DX001 (ip), vehicle: water); 101 % of control (endpoint: median tumor weight change, dose: 200.0 mg/kg/injection, schedule: Q01DX001 (ip), vehicle: water); 59 % of control (endpoint: median tumor weight change, dose: 400.0 mg/kg/injection, schedule: Q01DX001 (ip), vehicle: water); 62 % of control (endpoint: median tumor weight change, dose: 800.0 mg/kg/injection, schedule: Q01DX001 (ip), vehicle: water); 90 % of control (endpoint: median tumor weight change, dose: 1600.0 mg/kg/injection, schedule: Q01DX001 (ip), vehicle: water).

For `CC1(C)OCC(CO)(Nc2nc(N3CC3)nc(N3CC3)n2)CO1`, the T/C is, setting by setting: (endpoint: median tumor weight (est.), dose: 1.25 mg/kg/injection, schedule: Q07DX005 (ip), vehicle: saline) 41 % of control; (endpoint: median tumor weight (est.), dose: 2.5 mg/kg/injection, schedule: Q07DX005 (ip), vehicle: saline) 36 % of control; (endpoint: median tumor weight (est.), dose: 5.0 mg/kg/injection, schedule: Q07DX005 (ip), vehicle: saline) 18 % of control; (endpoint: median tumor weight (est.), dose: 10.0 mg/kg/injection, schedule: Q07DX005 (ip), vehicle: saline) 6 % of control.

In the case of `CONc1ccn(C2OC(CO)C(O)C2O)c(=O)n1` (stereo not given), the T/C is, setting by setting: (endpoint: median tumor weight change, dose: 125.0 mg/kg/injection, schedule: Q01DX001 (ip), vehicle: saline) 87 % of control; (endpoint: median tumor weight change, dose: 250.0 mg/kg/injection, schedule: Q01DX001 (ip), vehicle: saline) 103 % of control.

For `COC1/C=C\C=C(/C)C(=O)NC2=CC(=O)C=C(C2=O)C(OC)C(C)CC(OC)C(OC)C(C)/C=C(/C)C1OC(N)=O` (stereo not given), the T/C was 103 % of control (endpoint: median tumor weight change, dose: 1.88 mg/kg/injection, schedule: Q01DX001 (ip), vehicle: Klucel (hydroxypropylcellulose) (HPC)) and 46 % of control (endpoint: median tumor weight change, dose: 3.75 mg/kg/injection, schedule: Q01DX001 (ip), vehicle: Klucel (hydroxypropylcellulose) (HPC)).

Turning to `N/C(=N\O)c1cn(C2OC(CO)C(O)C2O)c2ncnc(N)c12` (stereo not given), the T/C runs as follows: (endpoint: median tumor weight (est.), dose: 4.0 mg/kg/injection, schedule: Q07DX005 (ip), vehicle: saline) 100 % of control; (endpoint: median tumor weight (est.), dose: 8.0 mg/kg/injection, schedule: Q07DX005 (ip), vehicle: saline) 112 % of control.

With `CC[n+]1c(-c2ccccc2)c2cc(N)ccc2c2ccc(N)cc21`, the T/C runs as follows: (endpoint: median tumor weight (est.), dose: 10.0 mg/kg/injection, schedule: Q07DX005 (ip), vehicle: water) 85 % of control; (endpoint: median tumor weight (est.), dose: 20.0 mg/kg/injection, schedule: Q07DX005 (ip), vehicle: water) 105 % of control.

On to `CC(=O)[O][Pb]([O]C(C)=O)([c]1ccccc1)[c]1ccccc1`, for which the T/C is, setting by setting: (endpoint: median tumor weight (est.), dose: 12.5 mg/kg/injection, schedule: Q07DX005 (ip), vehicle: Klucel (hydroxypropylcellulose) (HPC)) 124 % of control; under setting [1], 80 % of control; under setting [2], 65 % of control; under setting [3], 86 % of control; under setting [4], 75 % of control; under setting [5], 29 % of control.

Turning to `O=c1cc(CCl)[nH]nc1CCl`, the T/C is 86 % of control and 88 % of control (endpoint: median tumor weight (est.), dose: 3.12 mg/kg/injection, schedule: Q07DX005 (ip), vehicle: saline with Tween-80); 96 % of control and 103 % of control (endpoint: median tumor weight (est.), dose: 6.25 mg/kg/injection, schedule: Q07DX005 (ip), vehicle: saline with Tween-80); 92 % of control and 106 % of control (endpoint: median tumor weight (est.), dose: 12.5 mg/kg/injection, schedule: Q07DX005 (ip), vehicle: saline with Tween-80); 55 % of control (endpoint: median tumor weight (est.), dose: 50.0 mg/kg/injection, schedule: Q07DX005 (ip), vehicle: saline with Tween-80).

For `C[C@@H](CN1CC(=O)NC(=O)C1)N1CC(=O)NC(=O)C1`, the T/C reads like this: (endpoint: median tumor weight (est.), dose: 25.0 mg/kg/injection, schedule: Q07DX005 (ip), vehicle: saline) 75 % of control; (endpoint: median tumor weight (est.), dose: 50.0 mg/kg/injection, schedule: Q07DX005 (ip), vehicle: saline) 39 % of control; under setting [3], 52 % of control; (endpoint: median tumor weight (est.), dose: 100.0 mg/kg/injection, schedule: Q07DX005 (ip), vehicle: saline) 85 % of control; under setting [4], 107 % of control; (endpoint: median tumor weight (est.), dose: 200.0 mg/kg/injection, schedule: Q07DX005 (ip), vehicle: saline) 46 % of control. Also, the T/C reads like this: under setting [5], 37 % of control; (endpoint: median tumor weight (est.), dose: 400.0 mg/kg/injection, schedule: Q07DX005 (ip), vehicle: saline) 45 % of control; (endpoint: median tumor weight (est.), dose: 800.0 mg/kg/injection, schedule: Q07DX005 (ip), vehicle: Klucel (hydroxypropylcellulose) (HPC)) 10 % of control; (endpoint: median tumor weight (est.), dose: 800.0 mg/kg/injection, schedule: Q07DX005 (ip), vehicle: saline) 13 % of control.

Take `CCC(C)Nc1ccc(N)cc1` (stereo not given): the T/C is 90 % of control (endpoint: median tumor weight (est.), dose: 0.18 mg/kg/injection, schedule: Q07DX005 (ip), vehicle: Klucel (hydroxypropylcellulose) (HPC)); 92 % of control (endpoint: median tumor weight (est.), dose: 0.37 mg/kg/injection, schedule: Q07DX005 (ip), vehicle: Klucel (hydroxypropylcellulose) (HPC)); 86 % of control (endpoint: median tumor weight (est.), dose: 0.75 mg/kg/injection, schedule: Q07DX005 (ip), vehicle: Klucel (hydroxypropylcellulose) (HPC)); 107 % of control (endpoint: median tumor weight (est.), dose: 1.5 mg/kg/injection, schedule: Q07DX005 (ip), vehicle: Klucel (hydroxypropylcellulose) (HPC)); 123 % of control (endpoint: median tumor weight change, dose: 0.2 mg/kg/injection, schedule: Q01DX001 (ip), vehicle: Klucel (hydroxypropylcellulose) (HPC)); 93 % of control (endpoint: median tumor weight change, dose: 0.37 mg/kg/injection, schedule: Q01DX001 (ip), vehicle: Klucel (hydroxypropylcellulose) (HPC)). The T/C is 89 % of control (endpoint: median tumor weight change, dose: 0.75 mg/kg/injection, schedule: Q01DX001 (ip), vehicle: Klucel (hydroxypropylcellulose) (HPC)); 101 % of control (endpoint: median tumor weight change, dose: 1.5 mg/kg/injection, schedule: Q01DX001 (ip), vehicle: Klucel (hydroxypropylcellulose) (HPC)); 119 % of control (endpoint: median tumor weight change, dose: 3.0 mg/kg/injection, schedule: Q01DX001 (ip), vehicle: Klucel (hydroxypropylcellulose) (HPC)).

`Nc1nncs1`: the T/C is 72 % of control and 85 % of control under setting [1]; 44 % of control and 62 % of control under setting [2]; 34 % of control under setting [3]; 24 % of control and 49 % of control under setting [5].

`O=c1ssc(=Nc2ccccc2)n1-c1ccccc1`: the T/C by setting is: under setting [1], 119 % of control; under setting [2], 90 % of control; under setting [3], 70 % of control; under setting [4], 65 % of control; under setting [5], 69 % of control.
